≈ marks a conversion by molar mass, not a printed value.
Settings: buffer; pH 7.4; 200.0 µM

Row | Compound | solubility kinetic
1 | Cc1cnc(-n2c(=S)[nH]c3ccccc3c2=O)s1 | > 0.0413 mg/mL
2 | COc1ccccc1CN(C)C(=O)c1cc2ccccc2o1 | 0.0287 mg/mL (≈ 97.2 µM)
3 | COc1ccc(NC(=O)NC2CCCCCCC2)cc1OC | 0.0027 mg/mL (≈ 8.81 µM)
4 | Cc1ccc2c(c1)C1C3CCC(C3)C1S(=O)N2 (configuration not stated) | > 0.0371 mg/mL
5 | CC1CCCN(C(=O)Cc2cccc3ccccc23)C1 (configuration not stated) | 0.0383 mg/mL (≈ 143 µM)
6 | CCOC(=O)/C=c1\s/c(=C(\C#N)C(N)=O)n(-c2ccccc2)c1=O | 0.0084 mg/mL (≈ 24.5 µM)
7 | c1ccc(CN2CCN(c3ncccn3)CC2)cc1 | 0.0245 mg/mL (≈ 96.3 µM)
8 | CCC(=O)Nc1c(-c2ccc(C)cc2)c(=O)c2ccccc2n1C | 0.0208 mg/mL (≈ 64.9 µM)
9 | O=C(NCc1ccccn1)Nc1cccc(Cl)c1Cl | > 0.0444 mg/mL
10 | O=C(OCc1ccccc1Cl)c1cc([N+](=O)[O-])ccc1N1CCOCC1 | 0.0034 mg/mL (≈ 9.02 µM)
11 | CCN1CCN(Cc2cc3c(cc2[N+](=O)[O-])OCO3)CC1 | 0.0411 mg/mL (≈ 140 µM)
12 | CCOc1cc(C(=O)N2CCCN(C)CC2)cc(OCC)c1OCC | > 0.0526 mg/mL
13 | O=c1cc(-c2ccco2)nc(SCc2cccc(Cl)c2)[nH]1 | 0.0006 mg/mL (≈ 1.88 µM)
14 | Cc1c([N+](=O)[O-])c(C(=O)NC2CCCC2)nn1C | > 0.0378 mg/mL
15 | Nc1cccnc1Oc1ccc(F)cc1 | 0.0288 mg/mL (≈ 141 µM)
16 | O=C(O)/C=C\C(=O)Nc1ccc(F)c(F)c1F | 0.0343 mg/mL (≈ 140 µM)
17 | Cc1cc(-c2onc(C)c2C(=O)O)no1 | > 0.0312 mg/mL
18 | S=c1[nH]nc(C2(c3ccccc3)CCCC2)o1 | > 0.0369 mg/mL
19 | Cc1cc(Br)ccc1NC(=O)C1C2CCC(O2)C1C(=O)O (configuration not stated) | > 0.0531 mg/mL
20 | Cc1ccc(S(=O)(=O)N2CCN(C(=O)COC(=O)COc3cccc(C(F)(F)F)c3)CC2)c(C)c1 | 0.0087 mg/mL (≈ 16.9 µM)

Row | Compound | solubility kinetic
21 | Cc1ccc(OC(C)C(=O)Nc2ncc(Cl)cc2Cl)c([N+](=O)[O-])n1 (configuration not stated) | 0.0089 mg/mL (≈ 24 µM)
22 | O=S(=O)(Nc1ccncc1Cl)c1ccc2ccccc2c1 | 0.0423 mg/mL (≈ 133 µM)
23 | O=C(CN1CCOCC1)Nc1cccc([N+](=O)[O-])c1 | 0.0363 mg/mL (≈ 137 µM)
24 | Nc1ncc2[nH]cnc2n1 | > 0.0203 mg/mL
25 | Cc1c(C(=O)OCC(=O)N2CCCCC2C)oc2ccccc12 (configuration not stated) | > 0.0473 mg/mL
26 | CCCCCC(=O)Nc1ccc(S(=O)(=O)Nc2nccc(C)n2)cc1 | > 0.0544 mg/mL
27 | O=C(Nc1cccnc1)c1ccc(Cl)cc1[N+](=O)[O-] | > 0.0417 mg/mL
28 | Cl.NC(Cc1nc2ccccc2[nH]1)c1ccc(Cl)cc1 (configuration not stated) | 0.0377 mg/mL
29 | CC(=O)Nc1nc(-c2ccc3ccccc3c2)cs1 | < 0.0003 mg/mL
30 | Cc1ccccc1C(=O)NCCOc1ccccc1Cl | 0.0404 mg/mL (≈ 139 µM)
31 | O=Cc1c(NCc2ccccc2)c2ccccc2[nH]c1=O | 0.0207 mg/mL (≈ 74.4 µM)
32 | COc1ccc(CCNC(=O)Cc2ccc([N+](=O)[O-])cc2)cc1OC | 0.0513 mg/mL (≈ 149 µM)
33 | COc1ccc(-c2csc(Nc3ncccn3)n2)cc1C | < 0.0001 mg/mL
34 | COc1cc(OC)c(C(=S)N2CCCC2)cc1OC | 0.0389 mg/mL (≈ 138 µM)
35 | COc1ccc2oc(=N)c(C(=O)Nc3ccc(C)cc3)cc2c1 | 0.0006 mg/mL (≈ 1.95 µM)
36 | C[C@H](NC(=O)c1cccc([N+](=O)[O-])c1)C(=O)OCC(=O)c1ccccc1Br | > 0.0653 mg/mL
37 | O=C(c1ccc2ccccc2c1)N1CCCC1 | 0.0197 mg/mL (≈ 87.4 µM)
38 | COc1ccccc1N1CN(Cc2ccccc2)CNC1=S | > 0.047 mg/mL
39 | COc1ccc(N2CCN(C(=O)c3cccc(S(=O)(=O)N4CCc5ccccc54)c3)CC2)cc1 | 0.0071 mg/mL (≈ 14.9 µM)
40 | Cn1cnc(S(=O)(=O)Nc2ccc(OC(F)(F)F)cc2)c1 | 0.0397 mg/mL (≈ 124 µM)

Second part, the compound after the results:

Row | solubility kinetic | Compound
41 | 0.0351 mg/mL (≈ 123 µM) | COc1ccc(S(=O)(=O)N2CCNC(=O)CC2)cc1
42 | < 0.0006 mg/mL | COC(=O)c1sc(-c2ccc(Cl)cc2)cc1N
43 | > 0.0267 mg/mL | Cn1c(=S)n(C)c2ccccc21
44 | < 0.0003 mg/mL | O=C1/C(=C/c2cccnc2)SC(=S)N1CCc1ccccc1
45 | 0.036 mg/mL (≈ 132 µM) | CC(CCc1ccccc1)NC(=O)Cc1cccs1 (configuration not stated)
46 | 0.0031 mg/mL (≈ 10.9 µM) | NC(=O)c1ccccc1NC(=O)c1ccc2c(c1)OCO2
47 | > 0.0413 mg/mL | CC1CN(C(C)C)C(C)CC1OC(=O)c1ccccc1 (configuration not stated)
48 | 0.0033 mg/mL (≈ 11.4 µM) | CC(C)(C)C(=O)NC(=O)Nc1ccccc1C(F)(F)F
49 | > 0.0281 mg/mL | c1ccc(Sc2ccccn2)cc1
50 | 0.001 mg/mL (≈ 2.63 µM) | Cc1ccnc(NC(=O)c2ccc(Cl)c(NC(=O)c3ccccc3C)c2)c1
51 | > 0.041 mg/mL | CCn1ccc(C(=O)NCc2ccc3c(c2)OCO3)n1
52 | 0.0005 mg/mL | CCN(CC)c1nc(-c2ccccc2)nc2ccccc12.Cl
53 | 0.0013 mg/mL (≈ 3.75 µM) | COc1cccc(-c2cc(C(=O)NC3CCCC3)c3ccccc3n2)c1
54 | > 0.0359 mg/mL | Cc1cccc(C(=O)NCCc2ccccc2)c1
55 | 0.0147 mg/mL (≈ 49 µM) | N#Cc1c(-c2ccc([N+](=O)[O-])cc2)nc2n(c1=O)CCS2
56 | 0.0112 mg/mL (≈ 27.5 µM) | CN(C(=O)CSc1nc2scc(-c3ccccc3)c2c(=O)[nH]1)c1ccccc1
57 | > 0.0631 mg/mL | COc1c(C)cc(C(=O)C2CCCN(C(=O)c3cc4nc(C)cc(C)n4n3)C2)cc1C (configuration not stated)
58 | 0.0049 mg/mL (≈ 15.8 µM) | Cc1ccc2c(c1)C(=O)C(=O)N2CCCOc1ccccc1C
59 | 0.0049 mg/mL (≈ 16.5 µM) | Cc1ccc(C(=O)Oc2ccccc2N2CCOCC2)cc1
60 | 0.0409 mg/mL (≈ 121 µM) | CCOc1ccc(/C=C2\SC(=S)N(CCC(=O)O)C2=O)cc1
61 | > 0.0339 mg/mL | O=C(COc1ccccc1Cl)NC1CC1
62 | > 0.0413 mg/mL | CN(C)C1(CNC(=O)Nc2ccccc2)CCCCC1
63 | > 0.0445 mg/mL | O=S(=O)(Cc1ccc(Cl)cc1)NCc1cccnc1
64 | > 0.048 mg/mL | CC(CN1CCOCC1)OC(=O)c1ccccc1Cl.Cl (configuration not stated)

Row | solubility kinetic | Compound
65 | 0.0031 mg/mL (≈ 11.4 µM) | CCc1nonc1NC(=O)c1oc2ccccc2c1C
66 | > 0.0482 mg/mL | COc1ccc(C(=O)O)cc1S(=O)(=O)Nc1ccc(C)cc1
67 | 0.004 mg/mL (≈ 14 µM) | O=C(COc1ccccc1F)Nc1ccc2c(c1)CCC2
68 | 0.0037 mg/mL (≈ 11.1 µM) | CCn1c(C)cc(C(=O)COC(=O)c2cccnc2SC)c1C
69 | < 0.0004 mg/mL | CCOc1ccc(N2C(=O)/C(=C/c3ccccn3)SC2=S)cc1
70 | > 0.0466 mg/mL | COc1ccccc1CC(=O)N1CCN(c2ccccc2)CC1
71 | > 0.0512 mg/mL | Cc1cccc(NC(=O)C(C)Sc2nc3nc(C)cc(C)n3n2)c1 (configuration not stated)
72 | < 0.0003 mg/mL | Cc1cc(/C=C(\C#N)C(=O)NCc2ccccc2)cc(C)c1O
73 | > 0.0521 mg/mL | O=C(O)C1CCN(C(=O)CSc2nnc(-c3ccccc3)o2)CC1
74 | 0.0011 mg/mL (≈ 2.92 µM) | O=S(=O)(c1ccc(-c2ccon2)s1)N1CCN(c2ccccn2)CC1
75 | 0.0452 mg/mL (≈ 143 µM) | CCc1ccccc1N1CC(C(=O)Nc2nccs2)CC1=O (configuration not stated)
76 | 0.0075 mg/mL (≈ 23.6 µM) | O=C(Cc1ccc(Br)cc1)NCCc1ccccc1
77 | > 0.0536 mg/mL | Nn1c(SCC(=O)NC2CCS(=O)(=O)C2)nnc1-c1ccco1 (configuration not stated)
78 | > 0.0464 mg/mL | Cc1ccc(S(=O)(=O)CCC(=O)NC2CCCCC2)cc1
79 | 0.0118 mg/mL (≈ 28.3 µM) | CC(NC(=O)COC(=O)c1cccc(S(=O)(=O)N2CCCC2)c1)c1ccccc1 (configuration not stated)
80 | > 0.0541 mg/mL | COc1ccccc1NC(=O)CCN1C(=O)c2ccccc2S1(=O)=O
81 | 0.0227 mg/mL (≈ 114 µM) | C1CN(CCN2CCOCC2)CCN1
82 | 0.035 mg/mL (≈ 126 µM) | Cc1nc(C2COc3ccccc3O2)sc1C(=O)O (configuration not stated)
83 | 0.003 mg/mL (≈ 9.76 µM) | CCN(Cc1ccccc1)C(=O)c1oc2ccc(C)cc2c1C
84 | > 0.0516 mg/mL | CC1CC(=O)Nc2ccccc2N1C(=O)CN1C(=O)C(=O)N(C)C1=O (configuration not stated)
85 | > 0.0455 mg/mL | CC(NC(=O)CS(=O)(=O)c1ccccc1)c1ccccc1 (configuration not stated)
86 | 0.0046 mg/mL (≈ 15.2 µM) | CCc1noc(C)c1C(=O)OCC(=O)c1ccccc1OC
87 | 0.0417 mg/mL (≈ 120 µM) | O=C(NC(=S)N1CCN(c2ccc(O)cc2)CC1)c1cccs1

— PubChem BioAssay AID1996
